Assay [1] addresses Recombinant human Bcl-2 protein (Homo sapiens (Human), UniProt P10415). The assay is described as follows: Bcl-2 TR-FRET Assay. The assay is classed as binding. The note with it: Bcl-2 wild type, TR-FRET; read-out: Biochemical assay (IC50, nM) Bcl-2 WT. In outline: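 0.05 nM recombinant Bcl-2 preincubated 0.5 h at room temperature with 10-point compound dilutions (top final 1, 0.1, 0.02 or 0.01 uM) in pH 7.5 phosphate buffer. FITC-Bak peptide (0.5 nM) and anti-6His Tb cryptate then added for 1 h. TR-FRET read; IC50 from four-parameter logistic fit.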
For orientation: Time-resolved FRET reads energy transfer from a long-lived donor to a nearby acceptor.

Assay [2] has as its target recombinant human Bcl-2-G101V protein (Homo sapiens (Human), UniProt P10415, G101V). The assay is described as follows: Bcl-2-G101V TR-FRET Assay. It counts as binding. Conditions: Bcl-2 G101V mutant, TR-FRET; read-out: Biochemical assay (IC50, nM) Bcl-2 G101V. The method, boiled down: (§1)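 Measures how compounds block Bcl-2-G101V engaging its ligand, by TR-FRET with 337 nm excitation and a 490/520 nm emission ratio; dose-response data give IC50 via a four-parameter logistic model.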

The test system of assay [3] is recombinant human Bcl-2-G101V protein. In words: Bcl-2-G101V TR-FRET Assay. It counts as binding. The note with it: ratio of biochemical IC50 Bcl-2 G101V / Bcl-2 WT. The method, boiled down: as §1
In assay [4] the test system is RS4;11 (BCL-2 dependent acute lymphoblastic leukemia cell line). In words: RS4;11 Cell Proliferation Assay. It counts as cell-based. The note with it: Homo sapiens, RS4-11, RS4;11 cells, read-out: Cellular proliferation assay (IC50, nM) RS4. In outline:
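RS4;11 cells, 50,000 per well in RPMI-1640 with 10% FBS, treated 48 h at 37 °C with a 10-point dilution series topping at 1 μM. Viability read by CellTiter-Glo ATP luminescence; mean IC50 reported.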

The test system of assay [5] is BCL-2 G101V knock-in cell line H96 (derive from RS4;11). The assay is described as follows: Bcl 2-G101V Knock-In RS4;11 Cell Proliferation Assay. The assay is classed as cell-based. Conditions: Homo sapiens, RS4;11 Bcl-2 G101V knock-in clone H96, 48 hrs, CellTiter-GLO, read-out: Cellular proliferation assay (IC50, nM) RS4. The method, boiled down: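 H96, a CRISPR-generated RS4;11 clone carrying BCL2-G101V knock-in (WES/RNA-seq validated), seeded 50,000 per well and exposed 48 h at 37 °C to 10-point dilutions topping at 1 or 10 μM. Viability by CellTiter-Glo luminescence; mean IC50.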
For orientation: In ATP-based viability assays light output follows the ATP content of the culture.

Consider eleven compounds from US20240376097A1, “BCL-2 Inhibitor” (BeiGene Ltd., priority 2020, published 2024).

Structures are written as SMILES.

For `COc1ccc(CN2CCN(C3CC4(CCN(c5ccc(C(=O)NS(=O)(=O)c6ccc(NC[C@H]7CC[C@](C)(O)CC7)c([N+](=O)[O-])c6)c(Oc6cnc7[nH]ccc7c6)c5)CC4)C3)C(c3ccccc3C(C)C)C2)cc1Br` (stereo partly shown) [Example 143, 2-((1H-pyrrolo[2,3-b]pyridin-5-yl)oxy)-4-(2-(4-(3-bromo-4-methoxybenzyl)-2-(2-isopropylphenyl)piperazin-1-yl)-7-azaspiro[3.5]nonan-7-yl)-N-((4-((((1r,4r)-4-hydroxy-4-methylcyclohexyl)methyl)amino)-3-nitrophenyl)sulfonyl)benzamide], the IC50 was found to be 0.48 nM in assay [1], 2.6 nM in assay [2], 0.674 nM in assay [4] and 5.15 nM in assay [5]. Besides, in assay [3], the “Ratio of Bcl-2 G101V/WT” value turned out to be 5.5.
With `COc1cc(CN2CCN(C3CC4(CCN(c5ccc(C(=O)NS(=O)(=O)c6ccc(NC[C@H]7CC[C@](C)(O)CC7)c([N+](=O)[O-])c6)c(Oc6cnc7[nH]ccc7c6)c5)CC4)C3)C(c3ccccc3C(C)C)C2)cc(Cl)c1OC` (stereo partly shown) [Example 148, 2-((1H-pyrrolo[2,3-b]pyridin-5-yl)oxy)-4-(2-(4-(3-chloro-4,5-dimethoxybenzyl)-2-(2-isopropylphenyl)piperazin-1-yl)-7-azaspiro[3.5]nonan-7-yl)-N-((4-((((1r,4r)-4-hydroxy-4-methylcyclohexyl)methyl)amino)-3-nitrophenyl)sulfonyl)benzamide], the IC50 in assay [1] is 0.56 nM; in assay [2], 2 nM; in assay [4] it was 0.46 nM; in assay [5] it was 2.81 nM. Moreover, the “Ratio of Bcl-2 G101V/WT” value in assay [3] is given as 3.6.
Consider `CC(C)c1ccccc1[C@@H]1CN(Cc2cccc3c2OCCO3)CCN1C1CC2(C1)CN(c1ccc(C(=O)NS(=O)(=O)c3ccc(NC[C@H]4CC[C@](C)(O)CC4)c([N+](=O)[O-])c3)c(Oc3cnc4[nH]ccc4c3)c1)C2` [Example 149a, 2-((1H-pyrrolo[2,3-b]pyridin-5-yl)oxy)-4-(6-((R)-4-((2,3-dihydrobenzo[b][1,4]dioxin-5-yl)methyl)-2-(2-isopropylphenyl)piperazin-1-yl)-2-azaspiro[3.3]heptan-2-yl)-N-((4-((((1r,4r)-4-hydroxy-4-methylcyclohexyl)methyl)amino)-3-nitrophenyl)sulfonyl)benzamide], for which the IC50 in assay [1] came out at 0.11 nM; in assay [2] it was 0.27 nM; in assay [4], 0.17 nM; in assay [5], 0.67 nM. Also, in assay [3], the “Ratio of Bcl-2 G101V/WT” value amounted to 2.6.
In the same order, the values of `CC(C)c1ccccc1[C@H]1CN(Cc2cccc3c2OCCO3)CCN1C1CC2(C1)CN(c1ccc(C(=O)NS(=O)(=O)c3ccc(NC[C@H]4CC[C@](C)(O)CC4)c([N+](=O)[O-])c3)c(Oc3cnc4[nH]ccc4c3)c1)C2` [Example 149b, 2-((1H-pyrrolo[2,3-b]pyridin-5-yl)oxy)-4-(6-((S)-4-((2,3-dihydrobenzo[b][1,4]dioxin-5-yl)methyl)-2-(2-isopropylphenyl)piperazin-1-yl)-2-azaspiro[3.3]heptan-2-yl)-N-((4-((((1r,4r)-4-hydroxy-4-methylcyclohexyl)methyl)amino)-3-nitrophenyl)sulfonyl)benzamide] are 0.7 nM, 8.4 nM, 5.8 nM, 20.4 nM and 12.
For `C#Cc1cc(CN2CCN(C3CC4(CCN(c5ccc(C(=O)NS(=O)(=O)c6ccc(NC[C@H]7CC[C@](C)(O)CC7)c([N+](=O)[O-])c6)c(Oc6cnc7[nH]ccc7c6)c5)CC4)C3)C(c3ccccc3C(C)C)C2)ccc1OC` (stereo partly shown) [Example 151, 2-((1H-pyrrolo[2,3-b]pyridin-5-yl)oxy)-4-(2-(4-(3-ethynyl-4-methoxybenzyl)-2-(2-isopropylphenyl)piperazin-1-yl)-7-azaspiro[3.5]nonan-7-yl)-N-((4-((((1r,4r)-4-hydroxy-4-methylcyclohexyl)methyl)amino)-3-nitrophenyl)sulfonyl)benzamide] the same measures were 0.43 nM, 2.1 nM, 0.53 nM, 3.86 nM and 4.9.
In the same order, the values of `COc1cc(CN2CCN(C3CC4(CCN(c5ccc(C(=O)NS(=O)(=O)c6ccc(NC[C@H]7CC[C@](C)(O)CC7)c([N+](=O)[O-])c6)c(Oc6cnc7[nH]ccc7c6)c5)CC4)C3)C(c3ccccc3C(C)C)C2)cc(F)c1OC` (stereo partly shown) [Example 152, 2-((1H-pyrrolo[2,3-b]pyridin-5-yl)oxy)-4-(2-(4-(3-fluoro-4,5-dimethoxybenzyl)-2-(2-isopropylphenyl)piperazin-1-yl)-7-azaspiro[3.5]nonan-7-yl)-N-((4-((((1r,4r)-4-hydroxy-4-methylcyclohexyl)methyl)amino)-3-nitrophenyl)sulfonyl)benzamide] are 0.25 nM, 0.89 nM, 0.35 nM, 1.31 nM and 3.5.
`CCc1ccc(CN2CCN(C3CC4(CCN(c5ccc(C(=O)NS(=O)(=O)c6ccc(NC[C@H]7CC[C@](C)(O)CC7)c([N+](=O)[O-])c6)c(Oc6cnc7[nH]ccc7c6)c5)CC4)C3)C(c3ccccc3C(C)C)C2)cc1` (stereo partly shown) [Example 153]: the IC50 in assay [1] stood at 0.6 nM; in assay [2] it was 2.7 nM; in assay [4], 0.75 nM; in assay [5], 6.48 nM. The “Ratio of Bcl-2 G101V/WT” value in assay [3] worked out at 4.4.
For `COc1cnc(CN2CCN(C3CC4(CCN(c5ccc(C(=O)NS(=O)(=O)c6ccc(NC[C@H]7CC[C@](C)(O)CC7)c([N+](=O)[O-])c6)c(Oc6cnc7[nH]ccc7c6)c5)CC4)C3)C(c3ccccc3C(C)C)C2)cn1` (stereo partly shown) [Example 154, 2-((1H-pyrrolo[2,3-b]pyridin-5-yl)oxy)-N-((4-((((1r,4r)-4-hydroxy-4-methylcyclohexyl)methyl)amino)-3-nitrophenyl)sulfonyl)-4-(2-(2-(2-isopropylphenyl)-4-((5-methoxypyrazin-2-yl)methyl)piperazin-1-yl)-7-azaspiro[3.5]nonan-7-yl)benzamide] the same measures were 0.05 nM, 0.3 nM, 0.38 nM, 2.22 nM and 6.
Take `COc1cc(CN2CCN(C3CC4(CCN(c5ccc(C(=O)NS(=O)(=O)c6ccc(NC[C@H]7CC[C@](C)(O)CC7)c([N+](=O)[O-])c6)c(Oc6cnc7[nH]ccc7c6)c5)CC4)C3)C(c3ccccc3C(C)C)C2)ccc1C1CC1` (stereo partly shown) [Example 156, 2-((1H-pyrrolo[2,3-b]pyridin-5-yl)oxy)-4-(2-(4-(4-cyclopropyl-3-methoxybenzyl)-2-(2-isopropylphenyl)piperazin-1-yl)-7-azaspiro[3.5]nonan-7-yl)-N-((4-((((1r,4r)-4-hydroxy-4-methylcyclohexyl)methyl)amino)-3-nitrophenyl)sulfonyl)benzamide]: the IC50 in assay [1] amounted to 0.73 nM; in assay [2], 3.6 nM; in assay [4], 0.375 nM; in assay [5] it was 1.42 nM. The “Ratio of Bcl-2 G101V/WT” value in assay [3] was 4.9.
In the same order, the values of `COc1ccc(CN2CCN(C3CC4(CCN(c5ccc(C(=O)NS(=O)(=O)c6ccc(NC[C@H]7CC[C@](C)(O)CC7)c([N+](=O)[O-])c6)c(Oc6cnc7[nH]cc(F)c7c6)c5)CC4)C3)C(c3ccccc3C(C)C)C2)cc1OC(F)F` (stereo partly shown) [Example 159, 4-(2-(4-(3-(difluoromethoxy)-4-methoxybenzyl)-2-(2-isopropylphenyl)piperazin-1-yl)-7-azaspiro[3.5]nonan-7-yl)-2-((3-fluoro-1H-pyrrolo[2,3-b]pyridin-5-yl)oxy)-N-((4-((((1r,4r)-4-hydroxy-4-methylcyclohexyl)methyl)amino)-3-nitrophenyl)sulfonyl) benzamide] are 0.12 nM, 0.4 nM, 0.386 nM, 1.71 nM and 3.4.
Regarding `CC(C)c1ccccc1C1CN(Cc2ccc(C3CC3)cc2)CCN1C1CC2(CCN(c3ccc(C(=O)NS(=O)(=O)c4ccc(NC[C@H]5CC[C@](C)(O)CC5)c([N+](=O)[O-])c4)c(Oc4cnc5[nH]cc(F)c5c4)c3)CC2)C1` (stereo partly shown) [Example 160, 4-(2-(4-(4-cyclopropylbenzyl)-2-(2-isopropylphenyl)piperazin-1-yl)-7-azaspiro[3.5]nonan-7-yl)-2-((3-fluoro-1H-pyrrolo[2,3-b]pyridin-5-yl)oxy)-N-((4-((((1r,4r)-4-hydroxy-4-methylcyclohexyl)methyl)amino)-3-nitrophenyl)sulfonyl) benzamide], the IC50 was determined as 1.2 nM in assay [1], 6 nM in assay [2], 0.564 nM in assay [4] and 2.87 nM in assay [5]. For the same compound, the “Ratio of Bcl-2 G101V/WT” value in assay [3] came to 5.
